The test system of assay [1] is S. aureus. As to the kind of experiment: PAR in solution: S. aureus growth and minimal inhibitory concentration in MHB medium. The settings on record: for inhibition of S. aureus growth by PAR in solution (in words): concentrations up to 0.04 mg·mL^−1, 24 h at 37° C. in MHB; for times less active than PAR100 or PAR200 chains: from the MICs determined in solution; for inhibition of bacterial growth by PAR in solution (in words): at 1 μM. It is filed as cell-based, Staphylococcus aureus. Here is the method:
PAR with 10, 30, 100 or 200 arginine residues per chain were tested. Each PAR was incubated 24 h at 37° C. in 300 μL of MHB medium with S. aureus (A620=0.001). Pathogen growth of 0% corresponds to medium with antibiotics (and without PAR) and 100% to medium without PAR. Each value corresponds to the mean value of 3 individual experiments (3 samples per experiment and condition) and error bars correspond to standard deviations. For each concentration, the first column represents the normalized pathogen growth of S. aureus for PAR10, the 2nd column for PAR30, the third column for PAR100 and the fourth for PAR200.
In the following the inventors of the present invention wanted to further elucidate the underlying mechanism that confer to the coatings of the invention the strong inhibitory property on the surface and in the supernatant. As an example the (PAR30/HA)24 coating was further investigated. Accordingly, the minimal inhibitory concentration (MIC) of PAR in solution was determined using bacterial assay as described in Experimental Section. […] Finally for PAR at concentrations of 0.01 mg·mL^−1, inhibition of 100% was shown only for PAR30. Longer or shorter PAR chains (PAR10, PAR100 or PAR200) inhibits only partially (less than 40%) S. aureus growth. […] This reasoning is valid when PAR concentration values are expressed in mass (mg·mL^−1) thus it is related to the number of arginine monomers. However when the graph is plotted with concentrations in μM (and thus proportional in number of chains), which means that concentration is related to number of chains, different interpretation can be made. […] Moreover the MIC100 values obtained for PAR30, PAR100 or PAR200 ranges at very low concentrations (between 1 and 2 μM) which is remarkable when compared to well-known antimicrobial peptides (for example 30 μM for cateslytin with S. aureus, see Adv. Funct. Mater. 2013, 23, 4801-4809). PAR is thus a powerful candidate to fight against S. aureus.

Assay [2] has as its system S. aureus. The note with it: with S. aureus; Adv. Funct. Mater. 2013, 23, 4801-4809; cited from earlier work.

For poly-L-arginine [PAR30], the “inhibition of S. aureus growth by PAR in solution” value in assay [1] (0.01 mg·mL^−1, 24 h at 37° C. in MHB) stood at 100%. Besides, in assay [1] (S. aureus, PAR in solution), the MIC90 entry is “about 2 μM” and the “concentration needed to totally inhibit bacterial growth in solution” value is on record as “about 10 μM”. In addition, in assay [1], the “inhibition of S. aureus growth by PAR in solution (in words)” value was “totally inhibited” and the “times less active than PAR100 or PAR200 chains” value is listed as 2 times.
poly-L-arginine [PAR10]: the “concentration needed to totally inhibit bacterial growth in solution” value in assay [1] (S. aureus, PAR in solution) is reported as “about 10 μM”. Moreover, in assay [1], the “inhibition of S. aureus growth by PAR in solution (in words)” value is recorded as “totally inhibited” and the “times less active than PAR100 or PAR200 chains” value was found to be 10 times.
Regarding poly-L-arginine [PAR200], the “inhibition of S. aureus growth by PAR in solution” value in assay [1] (0.02 mg·mL^−1, 24 h at 37° C. in MHB) is reported as “about 45%”. Also, in assay [1], the “inhibition of bacterial growth by PAR in solution (in words)” value was “totally inhibit” and the “inhibition of S. aureus growth by PAR in solution (in words)” value is given as “totally inhibited”.
For the substance cateslytin, the “MIC of a known antimicrobial peptide” value in assay [2] was 30 µM.
As for poly-L-arginine [PAR100], in assay [1], the “inhibition of bacterial growth by PAR in solution (in words)” value is reported as “totally inhibit” and the “inhibition of S. aureus growth by PAR in solution (in words)” value is on record as “totally inhibited”.

Values taken from US11602578B2, “Crosslinkable polypeptide and hyaluronic acid coatings” (Université de Strasbourg, priority 2017, dated 2023).
